# Test results taken from patent US9271971B2, “Pyrido[3,4-B]indoles and methods of use” (Medivation Technologies, Inc., priority 2009, dated 2016).
# Target: T1, human recombinant adrenergic α2C receptor (Homo sapiens, UniProt P18825)
# T1 construct: expressed in transfected cells; host or cells: insect Sf9 cells
# T1 sequence (P18825 1-462): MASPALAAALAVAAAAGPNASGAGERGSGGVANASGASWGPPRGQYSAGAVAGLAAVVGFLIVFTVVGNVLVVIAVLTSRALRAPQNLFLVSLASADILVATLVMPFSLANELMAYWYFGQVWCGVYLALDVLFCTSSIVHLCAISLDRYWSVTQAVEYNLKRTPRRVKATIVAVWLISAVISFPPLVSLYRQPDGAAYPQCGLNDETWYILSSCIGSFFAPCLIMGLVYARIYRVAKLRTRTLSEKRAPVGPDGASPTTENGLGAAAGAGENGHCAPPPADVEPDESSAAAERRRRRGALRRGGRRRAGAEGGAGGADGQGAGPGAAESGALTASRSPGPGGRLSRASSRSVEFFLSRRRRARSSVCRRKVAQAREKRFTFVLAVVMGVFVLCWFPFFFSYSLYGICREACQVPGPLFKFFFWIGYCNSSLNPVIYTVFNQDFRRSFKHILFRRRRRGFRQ
# Assay: Adrenergic α2C radioligand binding assay
# Details: [3H]MK-912 specific binding, read-out: Percent Inhibition of ligand binding, Adrenergic (0.1 μM ligand conc.) α2C
# Method: To evaluate in radioligand binding assays the activity of compounds of the invention, human recombinant adrenergic α2C receptor expressed in insect Sf9 cells [Uhlen, S et al., J. Pharmacol. Exp. Ther. (1994), 271:1558] in a modified Tris-HCl buffer (50 mM Tris-HCl, pH 7.4, 12.5 mM MgCl2, 2 mM EDTA) was used. Compounds of the invention were incubated with 1 nM [^3H]MK-912 for 60 min. at 25° C. Non-specific binding was estimated in the presence of 10 μM WB-4101. Receptor proteins were filtered and washed, the filters were then counted to determine [^3H]MK-912 specifically bound. Compounds were screened at 1 μM or lower, using 1% DMSO as vehicle. Compounds of the invention were tested in this biochemical assay. Biochemical assay results for representative compounds were presented as the percent inhibition of specific binding in Table 3.
row,SMILES,inhibition at 0.1 µM
1,Cc1ccc2c(c1)c1c(n2C(=O)Cc2ccc(Cl)cc2)CN2CCC1C2 (stereo not drawn) [Compound 36],24%
2,COc1ccc(/C(C)=C/n2c3c(c4cc(C)ccc42)C2CCN(C3)C2)cc1 (stereo not drawn) [Compound 45],3%
3,C/C(=C\n1c2c(c3cc(C)ccc31)C1CCN(C2)C1)c1ccncc1 (stereo not drawn) [Compound 44],7%
4,C/C(=C\n1c2c(c3cc(C)ccc31)C1CCN(C2)C1)c1ccc(Cl)cc1Cl (stereo not drawn) [Compound 33],16%
5,C/C(=C\n1c2c(c3cc(C)ccc31)C1CCN(C2)C1)c1ccccc1F (stereo not drawn) [Compound 38],13%
6,C/C(=C\n1c2c(c3cc(C)ccc31)C1CCN(C2)C1)c1ccc(Cl)cc1 (stereo not drawn) [Compound 32],39%
